The source of these data is ChEMBL document CHEMBL3997784, “Discovery of new nanomolar inhibitors of GPa: Extension of 2-oxo-1,2-dihydropyridinyl-3-yl amide-based GPa inhibitors” (Eur J Med Chem, 2017).

Calls of active or inactive are those of the source. The rule behind the calls is not given here. Where only a bound is given, the exact number is not on record here.

For assay [1], the target named is Glycogen phosphorylase, muscle form (Oryctolagus cuniculus) (UniProt P00489). In words: Inhibition of rabbit muscle glycogen phosphorylase A assessed as release of inorganic phosphate from glucose-1- phosphate in presence of glycogen at 222 uM after 30 mins by malachite green based assay relative to control.
Glycogen phosphorylase, muscle form (Oryctolagus cuniculus), sequence (P00489 whole entry, looked up): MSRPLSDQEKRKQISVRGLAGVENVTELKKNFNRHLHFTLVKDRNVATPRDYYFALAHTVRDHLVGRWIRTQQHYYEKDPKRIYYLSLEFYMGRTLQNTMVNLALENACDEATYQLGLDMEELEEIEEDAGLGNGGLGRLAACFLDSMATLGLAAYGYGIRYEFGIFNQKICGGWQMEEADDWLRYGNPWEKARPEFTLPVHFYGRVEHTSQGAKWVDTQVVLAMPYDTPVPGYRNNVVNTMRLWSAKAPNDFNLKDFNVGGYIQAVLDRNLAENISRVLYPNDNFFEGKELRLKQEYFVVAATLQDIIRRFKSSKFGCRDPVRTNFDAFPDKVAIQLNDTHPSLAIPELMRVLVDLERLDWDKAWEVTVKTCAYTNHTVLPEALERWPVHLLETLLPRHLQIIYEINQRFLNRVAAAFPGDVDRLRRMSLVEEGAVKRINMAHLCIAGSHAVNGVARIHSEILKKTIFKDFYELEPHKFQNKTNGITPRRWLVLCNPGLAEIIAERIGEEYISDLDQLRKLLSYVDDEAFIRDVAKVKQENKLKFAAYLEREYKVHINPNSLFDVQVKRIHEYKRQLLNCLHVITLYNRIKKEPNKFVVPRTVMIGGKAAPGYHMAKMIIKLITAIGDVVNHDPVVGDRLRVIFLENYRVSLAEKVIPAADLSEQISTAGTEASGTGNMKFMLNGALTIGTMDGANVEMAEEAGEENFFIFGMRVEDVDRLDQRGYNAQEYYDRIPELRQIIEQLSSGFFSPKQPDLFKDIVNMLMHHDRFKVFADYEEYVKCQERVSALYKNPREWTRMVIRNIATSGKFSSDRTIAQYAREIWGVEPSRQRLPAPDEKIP
Assay [2] has the same target. The assay can be described thus: Inhibition of rabbit muscle glycogen phosphorylase A assessed as release of inorganic phosphate from glucose-1- phosphate in presence of glycogen after 30 mins by malachite green based assay.
For assay [3] the target is unchanged. In words: Inhibition of rabbit muscle glycogen phosphorylase A assessed as release of inorganic phosphate from glucose-1- phosphate in presence of glycogen at 2.2 uM after 30 mins by malachite green based assay relative to control.
Assay [4] concerns the target T1, Glycogen phosphorylase, muscle form (Rattus norvegicus) (UniProt P09812).
T1 sequence (whole entry): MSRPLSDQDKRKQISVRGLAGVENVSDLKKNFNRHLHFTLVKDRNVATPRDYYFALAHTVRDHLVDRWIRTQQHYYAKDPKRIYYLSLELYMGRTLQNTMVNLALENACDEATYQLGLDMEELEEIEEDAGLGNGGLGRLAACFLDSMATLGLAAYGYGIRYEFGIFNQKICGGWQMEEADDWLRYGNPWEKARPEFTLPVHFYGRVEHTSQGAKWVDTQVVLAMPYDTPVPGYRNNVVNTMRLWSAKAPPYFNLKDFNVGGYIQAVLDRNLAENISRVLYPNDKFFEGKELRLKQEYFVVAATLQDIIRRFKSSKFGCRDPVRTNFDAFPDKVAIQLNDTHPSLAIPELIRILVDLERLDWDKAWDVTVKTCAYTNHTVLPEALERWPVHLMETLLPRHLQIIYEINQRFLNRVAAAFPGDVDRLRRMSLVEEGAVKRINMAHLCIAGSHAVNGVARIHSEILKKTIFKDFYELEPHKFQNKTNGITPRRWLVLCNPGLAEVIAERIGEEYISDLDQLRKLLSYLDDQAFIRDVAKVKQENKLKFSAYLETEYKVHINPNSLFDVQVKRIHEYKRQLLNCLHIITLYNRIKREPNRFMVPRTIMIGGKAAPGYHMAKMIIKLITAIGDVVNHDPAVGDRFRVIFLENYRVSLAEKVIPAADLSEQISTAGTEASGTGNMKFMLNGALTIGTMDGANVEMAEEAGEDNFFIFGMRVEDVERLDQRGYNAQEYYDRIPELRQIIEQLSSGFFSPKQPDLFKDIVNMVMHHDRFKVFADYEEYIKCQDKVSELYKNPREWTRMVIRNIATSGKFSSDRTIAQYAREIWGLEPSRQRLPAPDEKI
To be noted: 22.2 uM.
Description: Inhibition of rat muscle glycogen phosphorylase A assessed as release of inorganic phosphate from glucose-1- phosphate in presence of glycogen at 22.2 uM after 30 mins by malachite green based assay relative to control

The inhibition is the drop in the measured response relative to a control, in per cent. Regarding `O=C(NCc1ccccc1)C1CCCN(C(=O)c2ccccc2)C1=O` (centres undefined), the inhibition entry in assay [1] was “inactive”.

`Cn1cccc(NCc2ccc(Cl)c(Cl)c2)c1=O`: in assay [1], the inhibition was determined as 34%.

Turning to `O=C(Cn1cccc(NC(=O)c2ccccc2)c1=O)NCCNC(=O)Cn1cccc(NC(=O)c2ccccc2)c1=O`, in assay [1], the inhibition result was “inactive”. For `O=C(Cn1cccc(NCc2ccccc2)c1=O)NCc1cn(Cc2ccccc2)nn1`, the inhibition in assay [1] turned out to be 60%.

On to `O=c1c(NCc2ccccc2)cccn1Cc1ccccc1`, for which, in assay [1], the inhibition result is “inactive”. Usually IC50 stands for the concentration needed to halve the response being measured. Take `CCOC(=O)Cn1cccc(NC(=O)Nc2ccc(NC(=O)Nc3cccn(CC(=O)OCC)c3=O)cc2)c1=O`: in assay [1], the inhibition was > 85%. The IC50 in assay [2] worked out at 3100 nM. For `O=c1c(NCc2ccc(Cl)c(Cl)c2)cccn1Cc1ccccc1` the same measures were > 85% and 33000 nM. Consider `Cc1ccn(CC(=O)NCc2ccc(Cl)c(Cl)c2)c(=O)c1NCc1ccccc1`, for which the inhibition in assay [1] amounted to 38%. As for `O=C(Cn1cccc(NC(=O)Nc2ccc(NC(=O)Nc3cccn(CC(=O)NCc4ccc(Cl)c(Cl)c4)c3=O)cc2)c1=O)NCc1ccc(Cl)c(Cl)c1`, the inhibition in assay [3] was > 85%. Further, the IC50 in assay [2] was 230 nM. On to `O=C(NCc1ccccc1)C1CCCN(C(=O)c2ccccc2Cl)C1=O` (centres undefined), for which, in assay [1], the inhibition worked out at 38%. Take `O=C(Cn1cccc(NCc2ccc(CNc3cccn(CC(=O)NCc4ccc(Cl)c(Cl)c4)c3=O)s2)c1=O)NCc1ccc(Cl)c(Cl)c1`: the inhibition in assay [3] is > 85%. Moreover, the IC50 in assay [2] is 260 nM. With `CCCNC(=O)Cn1cccc(NC(=O)Nc2ccc(NC(=O)Nc3cccn(CC(=O)NCCC)c3=O)cc2)c1=O`, the inhibition in assay [4] is > 85%. The IC50 in assay [2] was determined as 1600 nM. Regarding `O=C(NCc1ccc(Cl)c(Cl)c1)C1CCCN(C(=O)c2ccccc2)C1=O` (centres undefined), the inhibition in assay [1] is 39%. Consider `CCOC(=O)Cn1cccc(NCc2ccc(CNc3cccn(CC(=O)OCC)c3=O)s2)c1=O`, for which the inhibition in assay [1] is 29%.
